Experimental data reported in patent publication US10757937B2, “Sulfonamides that activate ABA receptors” (The Regents of the University of California, priority 2014, dated 2020).
Read-outs that look alike come from different tables or passages of the source.

Legend:
PYL5 = molecular target: T1, PYL5 (Arabidopsis thaliana, UniProt Q9FLB1); assay: receptor-mediated PP2C (HAB1) inhibition in vitro assay; type: biochemical; settings: compound at 25 μM; control without agonist = 100%
T1 construct: 6X-His; made in house; host or cells: E. coli BL21[DE3]pLysS
T1 sequence (Q9FLB1 1-203): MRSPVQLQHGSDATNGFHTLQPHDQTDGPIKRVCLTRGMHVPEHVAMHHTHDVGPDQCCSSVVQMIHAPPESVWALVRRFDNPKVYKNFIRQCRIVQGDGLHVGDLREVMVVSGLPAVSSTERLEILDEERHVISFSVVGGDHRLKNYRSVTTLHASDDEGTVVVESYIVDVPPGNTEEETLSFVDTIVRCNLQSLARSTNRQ
T1 sequence (Q9CAJ0 23-511 partner): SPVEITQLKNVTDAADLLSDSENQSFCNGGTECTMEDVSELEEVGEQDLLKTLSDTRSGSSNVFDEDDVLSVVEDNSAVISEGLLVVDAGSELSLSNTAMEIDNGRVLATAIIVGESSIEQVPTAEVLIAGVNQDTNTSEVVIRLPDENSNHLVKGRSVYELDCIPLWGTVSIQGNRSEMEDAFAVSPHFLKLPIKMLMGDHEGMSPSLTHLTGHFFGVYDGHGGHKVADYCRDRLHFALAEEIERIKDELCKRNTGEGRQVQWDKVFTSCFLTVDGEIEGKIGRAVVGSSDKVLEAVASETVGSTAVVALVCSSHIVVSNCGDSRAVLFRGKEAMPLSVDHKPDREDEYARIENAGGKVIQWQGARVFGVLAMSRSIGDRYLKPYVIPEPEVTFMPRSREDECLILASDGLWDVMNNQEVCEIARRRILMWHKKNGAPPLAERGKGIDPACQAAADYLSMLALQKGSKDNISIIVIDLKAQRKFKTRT
Experimental: (§1) A family of 62 structurally related N-acyl sulfonamides (Tables I-V) were tested for ABA agonist activity using multiple receptor-mediated PP2C inhibition in vitro assays (Park et al., 2009). […] The constructs utilized for protein expression have been previously described (Okamoto et al. 2013). For constructs encoding 6X-His-fusion proteins (all receptors except PYL11), the coding sequences were of the receptors were cloned in the vector pET28, expressed in BL21[DE3]pLysS E. coli host cells at 18° C. overnight, and subsequently purified from sonicated lysates using Ni-NTA agarose (Qiagen, USA), according to the manufacturer's instructions. PYL11 was constructed as a maltose binding protein fusion in the vector pMAL-c, expressed in BL21┌DE3┐pLysS host cells and purified using amylose resin (New England Biolabs) as described by the manufacturer. Recombinant GST-HAB1 was expressed and purified as described previously (Park et al., 2009). PP2C activity assays were conducted using the fluorogenic phosphatase substrate 4-methylumbelliferyl-phosphate. Recombinant receptors and HAB1 were used to examine ligand-induced PP2C inactivation in response to multiple test compounds. Enzyme inhibition assays were conducted using the following assay conditions: 50 nM GST-PP2C, 100 mM Tris-OAc (pH 7.9), 100 mM NaCl, 1 mM MnCl2, 1% β-mercaptoethanol. […] Because of this, the ratio of each receptor used in the PP2C-inhibitions assays was established empirically as the minimum fold-excess of receptor required to elicit maximal PP2C inhibition at a saturating ABA concentration (10 μM).
(§2) Based on this criterion, we used a ratio of 2:1 receptor in the assays described herein.
(§3) Using the above assay conditions, compounds were tested at 25 μM for agonist activity on PYL4, PYL5, PYL8 and PYL9. […] Consequently, a subset of the compounds was tested at multiple concentrations against 11 receptors so that IC50 values and receptor selectivity profiles could be examined. […] Thus, the N-acylsulfonamide agonists disclosed are selective for monomeric receptors.
(§4) Additional compounds were tested for biological activity following the procedures of Example 1 with minor modifications.
(§5) For these in vitro receptor assays, the compounds listed were tested in in vitro PP2C inhibition assays with 50 uM of the test compound except for ABA (10 uM). IC50s were calculated from dose curves, but only for selected compounds.

PYL9 = molecular target: T2, PYL9 (Arabidopsis thaliana, UniProt Q84MC7); assay: as above; type: biochemical; settings: compound at 25 μM; control without agonist = 100%
T2 construct: 6X-His; made in house; host or cells: E. coli BL21[DE3]pLysS
T2 sequence (Q84MC7 1-187): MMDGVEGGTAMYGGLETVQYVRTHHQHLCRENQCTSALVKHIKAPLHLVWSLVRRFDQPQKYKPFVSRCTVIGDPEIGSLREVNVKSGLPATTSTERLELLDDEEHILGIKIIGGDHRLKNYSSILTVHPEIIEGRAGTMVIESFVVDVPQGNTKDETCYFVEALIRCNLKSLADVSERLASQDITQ
T2 sequence (Q9CAJ0 23-511 partner): T1 sequence (Q9CAJ0 23-511 partner)
Experimental: as §1, §2, §3, §4, §5

PYL4 = molecular target: T3, PYL4 (Arabidopsis thaliana, UniProt O80920); assay: as above; type: biochemical; settings: compound at 25 μM; control without agonist = 100%
T3 construct: 6X-His; made in house; host or cells: E. coli BL21[DE3]pLysS
T3 sequence (O80920 1-207): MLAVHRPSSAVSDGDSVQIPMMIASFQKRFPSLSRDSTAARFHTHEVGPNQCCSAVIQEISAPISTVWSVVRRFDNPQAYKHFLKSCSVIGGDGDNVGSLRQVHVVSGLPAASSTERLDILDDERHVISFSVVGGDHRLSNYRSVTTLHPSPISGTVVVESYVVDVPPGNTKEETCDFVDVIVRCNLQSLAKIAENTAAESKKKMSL
T3 sequence (Q9CAJ0 23-511 partner): T1 sequence (Q9CAJ0 23-511 partner)
Experimental: as §1, §2, §3, §4, §5

PYL8 = molecular target: T4, PYL8 (Arabidopsis thaliana, UniProt Q9FGM1); assay: as above; type: biochemical; settings: compound at 25 μM; control without agonist = 100%
T4 construct: 6X-His; made in house; host or cells: E. coli BL21[DE3]pLysS
T4 sequence (Q9FGM1 1-188): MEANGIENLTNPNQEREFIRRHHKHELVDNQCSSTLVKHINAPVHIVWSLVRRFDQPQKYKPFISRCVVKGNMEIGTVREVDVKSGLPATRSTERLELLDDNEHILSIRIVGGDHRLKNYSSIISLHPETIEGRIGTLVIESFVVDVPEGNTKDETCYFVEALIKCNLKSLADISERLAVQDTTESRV
T4 sequence (Q9CAJ0 23-511 partner): T1 sequence (Q9CAJ0 23-511 partner)
Experimental: as §1, §2, §3, §4, §5

[1] = test system: Arabidopsis seed germination and hypocotyl growth; assay: Arabidopsis seed germination and hypocotyl growth; type: in vivo; settings: − = none; for Hypocotyl Growth Inhibition / Germination Inhibition: Germination Inhibition II, tested at 10 and 50 uM; for Hypocotyl Growth Inhibition: lowest concentration that inhibited hypocotyl growth in wells where seeds germinated; for minimal effective concentration: Table VIII, tested at 10 or 50 μM, lowest inhibiting concentration; for Germination Inhibition: lowest of the two concentrations that inhibited
Experimental: We germinated seeds from wild type on ½× strength Murashige and Skoog salts growth medium containing either 10 or 50 μM for all 62 compounds as well as 1 μM (+)-ABA and mock controls. […] To investigate if the any of the compounds are sufficient to control vegetative ABA responses, we treated three week old Arabidopsis plants with aqueous solutions containing 0.02% Silwet and either 50 μM of selected N-acylsulfonamides, 50 μM ABA or 0.1% DMSO (the carrier solvent for the compounds tested). The leaf temperatures were subsequently examined using a thermal imaging camera 24 hours after treatment. It is well known that ABA-induced guard cell closure reduces transpiration, which leads to increases in leaf temperatures. It has been estimated that a 1° C. increase in leaf temperature correlates with a decrease in transpiration rates by approximately 50% (Sirault et al., 2009). Since guard cell aperture is the primary determinant of transpiration rates, thermal imaging is a useful way to indirectly infer relative transpiration rates and, indirectly, relative degrees of guard cell opening at the whole plant level.
as §4
For the germination inhibition experiment, the compounds were tested at 10 and 50 uM. The amounts shown are the lowest of the two concentrations that either inhibited germination or hypocotyl growth in wells where seeds germinated.
For the germination test, the compounds were tested at 1, 5, 10, 25 and 50 uM. The amounts shown are the lowest of the concentrations that either inhibited germination or hypocotyl growth in the wells where seeds germinated.

[2] = read-out: Hypocotyl Growth Inhibition
[3] = ABA at 1 μM, read-out: Germination Inhibition

Structure (SMILES)	PP2C Activity (25 μm) PYL5 (PYL5) [%]	PP2C Activity (25 μm) PYL9 (PYL9) [%]	PP2C Activity (25 μm) PYL4 (PYL4) [%]	PP2C Activity (25 μm) PYL8 (PYL8) [%]	Hypocotyl Growth Inhibition [1] [µM]	minimal effective concentration [1, 2] [µM]	Germination Inhibition [1] [µM]	minimal effective concentration [1, 3] [µM]	remaining activity at 25 µM (PYL5) [%]	remaining activity at 25 µM (PYL9) [%]	remaining activity at 25 µM (PYL4) [%]	remaining activity at 25 µM (PYL8) [%]
CC(C)(C(=O)NS(=O)(=O)Cc1ccccc1C#N)c1ccccc1 [Compound 1]	106	83	96	89	50	50						
CC(C)(C(=O)NS(=O)(=O)Cc1ccc(C#N)cc1)c1ccc(Br)cc1 [Compound 2]	23	47	89	69	10	10	50	50				
CC(C)(C(=O)NS(=O)(=O)Cc1ccc(F)cc1)c1ccccc1 [Compound 4]	106	36	97	59	50	50						
CC(C)(C(=O)NS(=O)(=O)Cc1ccccc1)c1ccccc1 [Compound 5]	86	61	89	83	50	50						
CC(C)(C(=O)NS(=O)(=O)Cc1ccc(C#N)cc1)c1ccccc1F [Compound 8]	41	69	91	77	10	10	50	50				
CC(C)(C(=O)NS(=O)(=O)Cc1ccc(C#N)cc1)c1cccc(Br)c1 [Compound 9]	43	47	91	58	10	10						
CCC(CC)(C(=O)NS(=O)(=O)Cc1ccc(C#N)cc1)c1ccc(Cl)cc1 [Compound 10]	75	73	93	83	50	50						
Cc1ccc(C(C)(C)C(=O)NS(=O)(=O)Cc2ccc(C#N)cc2)cc1 [Compound 12]	43	47	92	62	50	50						
CC(C)(C(=O)NS(=O)(=O)Cc1ccc(C#N)cc1)c1cccc(Cl)c1 [Compound 15]	51	46	96	57	10	10						
CC(C)(C(=O)NS(=O)(=O)Cc1ccc(C#N)cc1)c1cccc(F)c1 [Compound 16]	47	30	93	43	10	10	50	50				
N#Cc1ccc(CS(=O)(=O)NC(=O)C2(c3ccc(C(F)(F)F)cc3)CCOCC2)cc1 [Compound 59]	65	98	92	97								
N#Cc1ccc(CS(=O)(=O)NC(=O)C2(c3ccccc3)CCN(S(=O)(=O)c3ccccc3)CC2)cc1 [Compound 60]	70	101	90	101								
O=C(NS(=O)(=O)Cc1cccc2cccnc12)C1(c2ccccc2)CC1 [Compound 62]									103	100	98	100
